Where two headings read alike, the source gives them in different places.

IC50 and inhibition data for 44 compounds are collected here from patent US7531573B2 (priority 1994, dated 2009).

For test [1], the target named is Gardos channel of erythrocytes (Homo sapiens, UniProt O15554). The test is described as follows: cell-based. The settings on record: for inhibition at 10 µM: read-out: Gardos Channel % Inhibition.
In test [2] the test system is NIH 3T3 mouse fibroblast cells. The test can be described thus: Mitogen-induced cell proliferation. It counts as cell-based. The settings on record: for inhibition at 10 µM: NIH3T3, read-out: Mitogen-induced cell proliferation % Inhibition; for IC50: NIH3T3, read-out: Mitogen-induced cell proliferation IC50. An excerpt:
Other cell lines, e.g., cancer cells, endothelial cells and fibroblasts, as well as many others, may be used in the cell proliferation assay. Selection of a particular cell line will depend in part on the desired application, and is well within the capabilities of an ordinarily skilled artisan.

Where [3] appears, read: erythrocytes, read-out: Gardos Channel IC50.

Chain of Gardos channel of erythrocytes (O15554 whole entry): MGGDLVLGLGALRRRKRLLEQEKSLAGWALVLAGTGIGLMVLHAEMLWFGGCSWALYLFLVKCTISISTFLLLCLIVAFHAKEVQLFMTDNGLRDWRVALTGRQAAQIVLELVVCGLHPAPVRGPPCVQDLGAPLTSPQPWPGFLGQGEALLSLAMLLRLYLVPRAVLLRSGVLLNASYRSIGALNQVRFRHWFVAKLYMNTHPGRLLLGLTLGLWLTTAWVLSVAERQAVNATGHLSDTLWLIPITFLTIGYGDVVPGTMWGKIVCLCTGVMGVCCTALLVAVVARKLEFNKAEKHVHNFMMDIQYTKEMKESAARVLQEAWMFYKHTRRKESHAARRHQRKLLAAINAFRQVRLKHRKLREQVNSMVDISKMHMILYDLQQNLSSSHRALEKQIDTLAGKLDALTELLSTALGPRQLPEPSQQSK

For the compound `O=C1CC[C@@H](COC(c2ccccc2)(c2ccccc2)c2ccccc2)N1` [Compound 23], the IC50 in test [1] (setting [3]) was determined as 216 nM; in test [2], 3800 nM. Further, the inhibition at 10 µM in test [1] was 97.9%; in test [2] it was 77%.
As for `O=C(O)CC(c1ccccc1)(c1ccccc1)c1ccccc1` [Compound 9], in test [1], the IC50 was determined as 21800 nM and the inhibition at 10 µM is 77.2%. Further, the inhibition at 10 µM in test [2] was found to be 32.7%.
As for `O=C(O)CCC(c1ccccc1)(c1ccccc1)c1ccccc1` [Compound 74], in test [1] (setting [3]), the IC50 was found to be 1400 nM. Moreover, the inhibition at 10 µM in test [1] was found to be 97.5%; in test [2], 70%.
`O=C(O)CC(c1ccc(Cl)cc1)(c1ccc(Cl)cc1)c1ccc(Cl)cc1` [Compound 39]: the IC50 was found to be 1680 nM in test [1] (setting [3]) and 3300 nM in test [2]. Also, the inhibition at 10 µM in test [1] was found to be 97%; in test [2], 99%.
As to `O=C(O)C(c1ccccc1)(c1ccccc1)c1ccccc1Cl` [Compound 80], the IC50 in test [1] (setting [3]) came to 206 nM. For the same compound, the inhibition at 10 µM was found to be 97% in test [1] and 62% in test [2].
The compound `C#C[Si](c1ccccc1)(c1ccccc1)c1ccccc1` [Compound 44] showed an IC50 in test [1] of 388 nM. Moreover, the inhibition at 10 µM in test [1] stood at 79.4%; in test [2], 82%.
On to `NC(=O)C(c1ccccc1)(c1ccccc1)C1CCCCC1` [Compound 90, Cyclohexyl-diphenylacetamide], for which the results for the IC50 in test [1] (setting [3]) and in test [2] were 72 nM and 3000 nM, respectively. Further, the values for the inhibition at 10 µM in test [1] and in test [2] were 98.3% and 86%, respectively.
For `OC(c1ccccc1)(c1ccccc1)c1ccccc1` [Compound 1], in test [1], the IC50 was found to be 755 nM and the inhibition at 10 µM came out at 97%.
Consider `CON(C)C(=O)CC(c1ccccc1)(c1ccccc1)c1ccccc1` [Compound 56], for which the figures for the IC50 in test [1] (setting [3]) and in test [2] were 275 nM and 3200 nM, respectively. In addition, the inhibition at 10 µM in test [1] stood at 91%; in test [2], 99%.
In the same order, the values of `COc1ccc(C(c2ccccc2)c2ccccc2Cl)cc1` (stereo not shown) [Compound 83] are 918 nM, 6400 nM, 96.7% and 80%.
As for `N#CC(c1ccccc1)(c1ccccc1)c1ccccc1Cl` [Compound 14, (2-chlorophenyl)-diphenylacetonitrile], the figures for the IC50 in test [1] and in test [2] were 48 nM and 2200 nM, respectively. For the same compound, the inhibition at 10 µM in test [1] was 98.8%; in test [2], 95.8%.
On to `COC(=O)c1ccccc1C(c1ccccc1)c1ccccc1` [Compound 45], for which the IC50 in test [1] (setting [3]) came out at 320 nM; in test [2], 800 nM. In addition, the values for the inhibition at 10 µM in test [1] and in test [2] were 98% and 99%, respectively.
For the compound `OC(c1ccccc1)(c1ccccc1)c1cccnc1` [Compound 63], in test [1], the IC50 was found to be 1020 nM and the inhibition at 10 µM was determined as 69%. The inhibition at 10 µM in test [2] was 37%.
On to `c1ccc([Si](c2ccccc2)(c2ccccc2)c2cccs2)cc1` [Compound 76], for which, in test [2], the inhibition at 10 µM was 84%.
On to `COC(=O)c1ccc(C(O)(c2ccccc2)c2ccccc2)cc1` [Compound 62], for which, in test [1], the IC50 was 98 nM and the inhibition at 10 µM came out at 98%. For the same compound, the inhibition at 10 µM in test [2] worked out at 31%.
In the same order, the values of `c1ccc(C(c2ccccc2)c2ccncc2)cc1` [Compound 4] are 2860 nM, 91% and 37.7%.
`Brc1ccc(C(c2ccccc2)c2ccc(Br)cc2)cc1` [Compound 66]: in test [1], the IC50 came to 384 nM and the inhibition at 10 µM came to 67.2%. Further, the inhibition at 10 µM in test [2] was 73%.
Take `O=CCC(c1ccc(Cl)cc1)(c1ccc(Cl)cc1)c1ccc(Cl)cc1` [Compound 65]: in test [1], the IC50 is 435 nM and the inhibition at 10 µM is 98%. In test [2], the inhibition at 10 µM is 99% and the IC50 was determined as 1600 nM.
For `COc1ccc(C(O)(c2ccccc2)c2ccccc2)cc1` [Compound 60], the IC50 in test [1] amounted to 304 nM. Further, the results for the inhibition at 10 µM in test [1] and in test [2] were 98% and 31%, respectively.
As to `OCCC[CH2][Ge]([c]1ccccc1)([c]1ccccc1)[c]1ccccc1` [Compound 72], the IC50 in test [1] stood at 1080 nM.
On to `N#CCc1ccc([Si](c2ccccc2)(c2ccccc2)c2ccccc2)cc1` [Compound 71], for which, in test [1], the inhibition at 10 µM amounted to 0.4%. Also, in test [2], the inhibition at 10 µM came out at 97% and the IC50 worked out at 1100 nM.
In the case of `OCCC(c1ccccc1)(c1ccccc1)c1ccccc1` [Compound 22], in test [1], the IC50 came to 302 nM and the inhibition at 10 µM is 82%. Also, in test [2], the inhibition at 10 µM was found to be 85% and the IC50 stood at 6800 nM.
In the case of `ClC(c1ccccc1)(c1ccccc1)c1ccccc1` [Compound 2], the IC50 in test [1] is 459 nM. Moreover, the inhibition at 10 µM in test [1] was determined as 99.4%; in test [2] it was 64.8%.
In the case of `O=C1CC[C@@H](COC(c2ccccc2)(c2ccccc2)c2ccccc2)O1` [Compound 24], the IC50 in test [1] (setting [3]) is 135 nM. For the same compound, the inhibition at 10 µM in test [1] came out at 97.9%; in test [2], 29%.
As to `OCCCC[Si](c1ccccc1)(c1ccccc1)c1ccccc1` [Compound 73], the IC50 in test [1] was 371 nM; in test [2], 2500 nM. The inhibition at 10 µM in test [1] was 98.9%; in test [2], 99%.
For `Oc1ccc(C(c2ccccc2)c2ccccc2Cl)cc1` (stereo not shown) [Compound 85], the IC50 worked out at 739 nM in test [1] (setting [3]) and 7000 nM in test [2]. Also, the results for the inhibition at 10 µM in test [1] and in test [2] were 98% and 91%, respectively.
As for `O=C(O)C(Cc1ccc2ccccc2c1)C(c1ccccc1)(c1ccccc1)c1ccccc1` (stereo not shown) [Compound 28], the IC50 in test [1] (setting [3]) turned out to be 5220 nM; in test [2], 700 nM. In addition, the inhibition at 10 µM was determined as 98% in test [1] and 99% in test [2].
In the same order, the values of `CCOC(=O)C(c1ccccc1)(c1ccccc1)N1CCCCC1` [Compound 87] are 68 nM, 2200 nM, 99% and 96%.
The matching figures for `N#CC(c1ccccc1)(c1ccccc1)c1ccccc1` [Compound 13]: 133 nM, 920 nM, 72.4% and 87%.
Regarding `Nc1ccc(C(O)(c2ccc(N)cc2)c2ccc(N)cc2)cc1` [Compound 54], the inhibition at 10 µM in test [1] came to 17.4%. For the same compound, in test [2], the inhibition at 10 µM worked out at 99% and the IC50 worked out at 200 nM.
For the compound `NC(c1ccccc1)(c1ccccc1)c1ccccc1` [Compound 5], the figures for the IC50 in test [1] and in test [2] were 1650 nM and 1280 nM, respectively. Besides, the inhibition at 10 µM in test [1] was found to be 86%; in test [2], 66%.
`N#CCC(c1ccc(Cl)cc1)(c1ccc(Cl)cc1)c1ccc(Cl)cc1` [Compound 26]: in test [1], the inhibition at 10 µM worked out at 10%. Besides, in test [2], the inhibition at 10 µM was determined as 99% and the IC50 amounted to 1300 nM.
Consider `CCOC(=O)C(C(=O)OCC)C(c1ccccc1)(c1ccccc1)c1ccccc1` [Compound 31], for which, in test [1], the IC50 came to 445 nM and the inhibition at 10 µM is 99%. Further, in test [2], the inhibition at 10 µM amounted to 89% and the IC50 came to 2600 nM.
In the case of `CC(=O)C(c1ccccc1)(c1ccccc1)c1ccccc1` [Compound 37], the IC50 in test [1] (setting [3]) worked out at 57 nM. Moreover, the inhibition at 10 µM in test [1] was 100%; in test [2], 31%.
For `N#CCCC(c1ccccc1)(c1ccccc1)c1ccccc1` [Compound 64, 4,4,4-triphenylbutronitrile], the values for the IC50 in test [1] (setting [3]) and in test [2] were 88 nM and 5800 nM, respectively. For the same compound, the inhibition at 10 µM amounted to 100% in test [1] and 63% in test [2].
For `OC(c1ccccc1)(c1ccccc1)c1ccccc1F` [Compound 20], in test [1], the IC50 came to 795 nM and the inhibition at 10 µM turned out to be 98.1%. Moreover, in test [2], the inhibition at 10 µM was 39%.
For `CC(=O)CC(c1ccccc1)(c1ccccc1)c1ccccc1Cl` [Compound 82, 4-(2-chlorophenyl)-4,4-diphenyl-2-butanone], the IC50 came out at 27 nM in test [1] (setting [3]) and 5000 nM in test [2]. Also, the inhibition at 10 µM came out at 99.5% in test [1] and 98% in test [2].
With `OC(c1ccccc1)(c1ccc(Br)cc1)c1ccc(Br)cc1` [Compound 50], the IC50 in test [1] was 288 nM; in test [2] it was 500 nM. Also, the results for the inhibition at 10 µM in test [1] and in test [2] were 100% and 99%, respectively.
Take `Cc1ccc(C(c2cc(Cl)ccc2N)c2ccccc2Cl)cc1` (stereo not shown) [Compound 86]: the IC50 in test [1] (setting [3]) is 237 to 455 nM; in test [2] it was 2400 nM. Moreover, the inhibition at 10 µM came to 93.9% in test [1] and 99% in test [2].
`COc1ccc(C(O)(c2ccccc2)c2ccc(OC)cc2)cc1` [Compound 58]: the IC50 in test [1] is 247 nM. In addition, the inhibition at 10 µM in test [1] is 99.6%; in test [2], 99%.
Regarding `CCC(c1ccccc1)(c1ccccc1)c1ccc(O)cc1` [Compound 67], the IC50 was determined as 430 nM in test [1] (setting [3]) and 1400 nM in test [2]. Further, the inhibition at 10 µM in test [1] stood at 96.1%; in test [2], 98%.
In the same order, the values of `NC(=O)CC(c1ccccc1)(c1ccccc1)c1ccccc1` [Compound 18] are 431 nM, 10000 nM, 98% and 76.1%.
Regarding `CCOC(=O)C(C(=O)OCC)C(c1ccccc1)(c1ccccc1)c1ccccc1F` [Compound 55], the IC50 in test [1] (setting [3]) came to 58 nM. Besides, the inhibition at 10 µM in test [1] amounted to 98%; in test [2], 5%.
As to `CON(C)C(=O)CC(c1ccc(Cl)cc1)(c1ccc(Cl)cc1)c1ccc(Cl)cc1` [Compound 40], in test [2], the inhibition at 10 µM amounted to 99% and the IC50 was 1000 to 1200 nM.
